The values that follow come from ChEMBL document CHEMBL5316350, “Novel Pyrido[2',1':2,3]imidazo[4,5-c]quinoline Derivative Selectively Poisons Leishmania donovani Bisubunit Topoisomerase 1 to Inhibit the Antimony-Resistant Leishmania Infection in Vivo” (J Med Chem, 2023).

Series [1] has as its system Leishmania donovani. The series is described as follows: Antileishmanial activity in Leishmania donovani BHU575 promastigotes assessed as TUNEL positive cells at 5 uM measured after 24 hrs by confocal microscopic analysis relative to control. The series is classed as functional.
In series [2] the test system is Leishmania donovani. The series is described as follows: Induction of cell cycle arrest in Leishmania donovani Ag83 promastigotes assessed as decrease in accumulation of cells in G2/M phase at 5 uM measured after 6 hrs by PI staining based flow cytometry (reference value: 15.1 %). In kind it is functional. Also noted: scale not given: the % may be the effect or the level left.

The subject of series [3] is Leishmania donovani. Put plainly: Induction of apoptosis in Leishmania donovani Ag83 promastigotes assessed as increase in apoptotic cells measured at 5 uM after 1.5 hrs by Annexin V-FITC/PI staining based flow cytometric analysis. The series is classed as functional, organism-based. (In general: Flow cytometry measures light scatter and fluorescence of single cells or particles in a stream.)

For series [4], the system named is Leishmania donovani. The series is described as follows: Induction of apoptosis in Leishmania donovani Ag83 promastigotes assessed as increase in apoptotic genomic DNA fragmentation measured at 5 uM after 6 hrs by Annexin V-FITC/PI staining based flow cytometric analysis. The series is classed as functional, organism-based.
Series [5] has as its system Leishmania donovani. The series is described as follows: Induction of apoptosis in Leishmania donovani BHU575 assessed as DNA break accumulation measured at 5 uM after 6 to 24 hrs by TUNEL staining based assay. The series is classed as functional, organism-based. The following applies: time 6-24 hrs.
Series [6] deals with T1, DNA topoisomerase I (Leishmania donovani (strain BPK282A1)) (UniProt E9BRC0).
T1 sequence (whole entry): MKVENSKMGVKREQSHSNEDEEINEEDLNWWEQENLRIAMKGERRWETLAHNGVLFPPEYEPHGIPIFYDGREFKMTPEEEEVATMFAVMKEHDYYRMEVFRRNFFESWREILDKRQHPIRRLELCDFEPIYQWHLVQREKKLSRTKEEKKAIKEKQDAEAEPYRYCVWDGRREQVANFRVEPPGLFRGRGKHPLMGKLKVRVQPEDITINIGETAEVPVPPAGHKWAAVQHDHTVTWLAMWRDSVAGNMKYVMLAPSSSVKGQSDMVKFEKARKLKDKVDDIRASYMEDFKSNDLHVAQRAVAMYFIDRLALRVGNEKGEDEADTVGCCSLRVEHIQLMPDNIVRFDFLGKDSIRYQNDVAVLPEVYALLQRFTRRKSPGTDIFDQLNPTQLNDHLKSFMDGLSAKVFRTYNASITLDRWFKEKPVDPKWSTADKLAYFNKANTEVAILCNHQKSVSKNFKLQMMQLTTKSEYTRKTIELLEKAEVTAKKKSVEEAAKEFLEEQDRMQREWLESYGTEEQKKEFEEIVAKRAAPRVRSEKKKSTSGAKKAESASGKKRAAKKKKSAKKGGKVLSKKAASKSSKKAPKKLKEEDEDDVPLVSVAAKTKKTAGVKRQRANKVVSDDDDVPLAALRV
Put plainly: Binding affinity to topoisomerase I in Leishmania donovani Ag83 whole cell lysate assessed as stabilization of cleavage complex at 5 to 50 uM measured after 30 mins. In kind it is subcellular. The following applies: dose 5-50 µM.

For series [7], the system named is Leishmania donovani. Put plainly: Antileishmanial activity against Leishmania donovani Ag83 amastigotes infected in BALB/c mouse macrophage assessed as cell viability measured after 48 hrs infection by propidium iodide staining analysis relative to control. The series is classed as functional, organism-based. The following applies: Ag83, 48 h.
Series [8] relates to Leishmania donovani. Put plainly: Stabilization of Leishmania donovani recombinant topoisomerase I/25-mer duplex oligonucleotide DNA complex assessed as fold change in stabilization at 5 to 25 uM measured after 30 mins. To be noted: dose 5-25 µM.
For series [9], the system named is Leishmania donovani. Put plainly: Induction of apoptosis in Leishmania donovani Ag83 promastigotes assessed as necrotic cells measured at 5 uM after 24 hrs by Annexin V-FITC/PI staining based flow cytometric analysis (reference value: 0.5%). The series is classed as functional.
Series [10] has as its system Leishmania donovani. Put plainly: Induction of cell cycle arrest in Leishmania donovani Ag83 promastigotes assessed as decrease in accumulation of cells in G2/M phase at 5 uM measured after 24 hrs by PI staining based flow cytometry (reference value: 15.1 %). The series is classed as functional. Also noted: scale not given: the % may be the effect or the level left.

Series [11] deals with Leishmania donovani. Put plainly: Antileishmanial activity against Leishmania donovani Ag83 promastigotes infected in BALB/c mouse assessed as reduction of amastigote burden in liver treated after 3 weeks of infection at 5 to 10 mg/kg, ip twice a week for 3 weeks by Giemsa staining stamp-smear based limiting dilution assay. The following applies: dose 5-10 mg/kg. The series is classed as functional, organism-based.

Series [12] relates to Leishmania donovani. Put plainly: Antileishmanial activity against Leishmania donovani Ag83 promastigotes infected in BALB/c mouse model of visceral leishmaniasis assessed as fold change in T-helper type 1 immunological evoke response in splenocytes by measuring decrease in IL-10 level treated after 3 weeks of infection at 5 to 10 mg/kg, ip twice a week for 3 weeks by RT-PCR analysis. In kind it is functional. To be noted: dose 5-10 mg/kg.

For series [13], the system named is Leishmania donovani. The series is described as follows: Antileishmanial activity against antimony resistant Leishmania donovani BHU575 promastigotes infected in BALB/c mouse assessed as reduction of amastigote burden by measuring parasite count in spleen treated after 3 weeks of infection at 5 to 10 mg/kg, ip twice a week for 3 weeks by qPCR based kineto-plastid DNA. The series is classed as functional, organism-based. To be noted: dose 5-10 mg/kg.

For series [14], the system named is Leishmania donovani. Put plainly: Antileishmanial activity against antimony resistant Leishmania donovani BHU575 promastigotes infected in BALB/c mouse assessed as reduction of macrophage at 1 to 10 uM infection by propidium iodide staining analysis. The series is classed as functional, organism-based. The following applies: dose 1-10 µM, time 72-96 hrs, TDE = time-dependent effect.

Series [15] deals with Leishmania donovani. The series is described as follows: Antileishmanial activity in Leishmania donovani Ag83 promastigotes assessed as Top1cc-induced DNA breakdown by measuring TUNEL positive cells by confocal microscopic analysis. In kind it is functional, organism-based. To be noted: time 6-12 hrs, TDE = time-dependent effect.
Series [16] in a line: Cytotoxicity against BALB/c mouse macrophage assessed as cell viability measured after 48 hrs infection by propidium iodide staining analysis relative to control. In kind it is toxicity, cell-based. The following applies: mouse macrophages.
Series [17] addresses T2, DNA topoisomerase 1 (Homo sapiens) (UniProt P11387).
T2 sequence (whole entry): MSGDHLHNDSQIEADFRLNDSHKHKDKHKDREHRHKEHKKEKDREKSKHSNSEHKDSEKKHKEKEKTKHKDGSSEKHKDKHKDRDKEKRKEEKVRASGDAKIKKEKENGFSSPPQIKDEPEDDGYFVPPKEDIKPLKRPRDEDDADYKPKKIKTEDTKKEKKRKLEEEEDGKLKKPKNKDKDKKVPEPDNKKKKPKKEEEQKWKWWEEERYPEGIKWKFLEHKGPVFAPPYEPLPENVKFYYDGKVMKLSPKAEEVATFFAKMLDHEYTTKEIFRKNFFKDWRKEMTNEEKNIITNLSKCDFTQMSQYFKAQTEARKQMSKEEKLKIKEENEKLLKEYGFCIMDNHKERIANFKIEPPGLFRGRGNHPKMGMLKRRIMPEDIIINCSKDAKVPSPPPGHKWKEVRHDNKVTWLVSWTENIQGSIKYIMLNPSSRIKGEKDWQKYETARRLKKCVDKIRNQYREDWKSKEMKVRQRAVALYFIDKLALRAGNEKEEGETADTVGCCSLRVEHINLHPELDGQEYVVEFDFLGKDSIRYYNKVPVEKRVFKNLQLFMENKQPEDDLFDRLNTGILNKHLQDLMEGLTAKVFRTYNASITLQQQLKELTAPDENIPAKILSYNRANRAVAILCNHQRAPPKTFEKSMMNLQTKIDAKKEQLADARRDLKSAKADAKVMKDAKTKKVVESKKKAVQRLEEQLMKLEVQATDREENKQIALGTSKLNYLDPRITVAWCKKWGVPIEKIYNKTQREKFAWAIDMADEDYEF
The series is described as follows: Inhibition of human recombinant Top1 infected in Sf9 cells assessed as plasmid DNA relaxation upto 100 uM measured after 30 mins.

pEC50: −log10 of the molar value. Activity calls are given as the source filed them. The rule behind the calls is not given here.

In general, pEC50 refers to −log10 of the EC50, conventionally taken in molar units. One may read the EC50 as the concentration needed to bring the measured effect to its halfway point.

With `COc1cc(-c2nc3ccccc3c3nc4ccccn4c23)cc(OC)c1OC`, the Activity in [1] is 85%; in series [2] it was 27.7%; in series [9] it was 23.1%; in series [10], 34.2%; in [14] it was “Tde”; in series [15], “Tde”. Further, the result in series [3], in series [4], in series [5], in [6], in series [11] and in [13] was Active. For the same compound, the pEC50 in series [7] was 5.60. In addition, the fold change (FC) in series [8] and in series [12] was 2 in each case. Also, in series [16], the concentration giving a half-maximal response (EC50) at 48 h was found to be 50.2 µM. The inhibition entry in [17] was “inactive”.
